From patent publication US20240158446A1, “CYCLIC COMPOUND HAVING SELECTIVE INHIBITORY ACTION ON KRAS OVER HRAS AND NRAS” (CHUGAI SEIYAKU KABUSHIKI KAISHA, priority 2021, published 2024)

Tests used:
[1] = target: GDP-bound KRAS wild-type protein (Homo sapiens, UniProt P01116); experiment: Binding to KRAS by surface plasmon resonance (SPR), Single Cycle Kinetics; conditions: SPR, Single Cycle Kinetics, GDP-bound KRAS wild-type protein; read-out: KRAS KD
[2] = target: GDP-bound NRAS wild-type protein (Homo sapiens, UniProt P01111); experiment: Binding to NRAS by surface plasmon resonance (SPR), Single Cycle Kinetics; conditions: SPR, GDP-bound NRAS wild-type protein vs GDP-bound KRAS wild-type protein
GDP-bound NRAS wild-type protein, sequence (P01111 whole entry): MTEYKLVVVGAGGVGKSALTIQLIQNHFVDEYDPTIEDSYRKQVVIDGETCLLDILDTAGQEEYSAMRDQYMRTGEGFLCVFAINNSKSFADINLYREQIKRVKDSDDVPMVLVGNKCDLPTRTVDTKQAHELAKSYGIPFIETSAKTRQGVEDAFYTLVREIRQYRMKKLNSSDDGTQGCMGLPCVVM

[3] = target: GDP-bound HRAS wild-type protein (Homo sapiens, UniProt P01112); experiment: Binding to HRAS by surface plasmon resonance (SPR), Single Cycle Kinetics; conditions: SPR, GDP-bound HRAS wild-type protein vs GDP-bound KRAS wild-type protein
GDP-bound HRAS wild-type protein, sequence (P01112 whole entry): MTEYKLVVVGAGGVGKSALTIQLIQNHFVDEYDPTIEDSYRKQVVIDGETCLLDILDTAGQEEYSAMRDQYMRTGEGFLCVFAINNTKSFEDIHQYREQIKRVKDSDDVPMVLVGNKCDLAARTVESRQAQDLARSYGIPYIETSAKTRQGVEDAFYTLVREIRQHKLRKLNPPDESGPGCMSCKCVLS

GDP-bound KRAS wild-type protein, sequence (P01116 whole entry): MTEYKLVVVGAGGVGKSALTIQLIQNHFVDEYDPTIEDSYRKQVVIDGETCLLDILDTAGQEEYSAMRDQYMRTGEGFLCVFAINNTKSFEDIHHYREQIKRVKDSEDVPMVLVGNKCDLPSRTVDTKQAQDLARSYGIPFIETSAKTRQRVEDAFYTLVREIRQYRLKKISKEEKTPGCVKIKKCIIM

Row | Structure (SMILES) | Kd [1] | NRAS/KRAS (ratio of KD value for NRAS to KD value for KRAS) [2] | HRAS/KRAS (ratio of KD value for HRAS to KD value for KRAS) [3]
1 | CCO[C@@H]1C[C@H]2C(=O)N[C@]3(C)CCCCCC[C@@H](C(=O)N[C@@H]([C@@H](C)CC)C(=O)N(C)CC(=O)N(C)[C@H]4CCCCN(C4=O)[C@@H](Cc4ccc(C(F)(F)F)cc4)C(=O)N(C)CC(=O)N[C@@H](CCc4cc(F)c(C(F)(F)F)c(F)c4)C(=O)N2C1)N(C)C(=O)C[C@@H](C(=O)N1CCOCC1)N(C)C(=O)[C@H](C1CCCC1)N(C)C3=O [PP0992] | 4.6 nM | B (a compound having 3 or more and less than 10 is denoted as B) | B (a compound having 3 or more and less than 10 is denoted as B)
2 | CCO[C@@H]1C[C@H]2C(=O)N[C@@]3(C)CCCCCCC[C@@H](C(=O)N[C@@H]([C@@H](C)CC)C(=O)N(C)CC(=O)N(C)[C@H]4CCCCN(C4=O)[C@@H](Cc4ccc(C(F)(F)F)cc4)C(=O)N(C)CC(=O)N[C@@H](CCc4cc(F)c(C(F)(F)F)c(F)c4)C(=O)N2C1)N(C)C(=O)C[C@@H](C(=O)N1CCOCC1)N(C)C(=O)[C@H](C1CCCC1)N(C)C3=O [PP0993] | 1.4 nM | B (a compound having 3 or more and less than 10 is denoted as B) | B (a compound having 3 or more and less than 10 is denoted as B)
3 | CCCCO[C@@H]1C[C@H]2C(=O)NC3(CCC3)C(=O)N(C)[C@@H](C3CCCC3)C(=O)N(C)[C@H](C(=O)N3CCOCC3)CC(=O)N(C)[C@@H](CC(C)C)C(=O)N[C@@H]([C@@H](C)CC)C(=O)N(C)CC(=O)N(C)[C@H]3CCCCN(C3=O)[C@@H](Cc3ccc(C(F)(F)F)cc3)C(=O)N(C)CC(=O)N[C@@H](CCc3cc(F)c(C(F)(F)F)c(F)c3)C(=O)N2C1 [PP0999] | 0.11 nM | C (A compound having a KD ratio of 0.1 or more and less than 3 is denoted as C) | B (a compound having 3 or more and less than 10 is denoted as B)
4 | CC[C@H](C)[C@@H]1NC(=O)[C@H](CC(C)C)N(C)C(=O)C[C@@H](C(=O)N2CCOCC2)N(C)C(=O)[C@H](C2CCCC2)N(C)C(=O)C2(CCC2)NC(=O)[C@@H]2C[C@@H](OCC3CCCC3)CN2C(=O)[C@H](CCc2cc(F)c(C(F)(F)F)c(F)c2)NC(=O)CN(C)C(=O)[C@H](Cc2ccc(C(F)(F)F)cc2)N2CCCC[C@@H](C2=O)N(C)C(=O)CN(C)C1=O [PP1001] | 0.1 nM | B (a compound having 3 or more and less than 10 is denoted as B) | B (a compound having 3 or more and less than 10 is denoted as B)
5 | CC[C@H](C)[C@@H]1NC(=O)[C@H](CC(C)C)N(C)C(=O)C[C@@H](C(=O)N2CCOCC2)N(C)C(=O)[C@H](C2CCCC2)N(C)C(=O)C2(CCC2)NC(=O)[C@@H]2C[C@@H](OCC(F)F)CN2C(=O)[C@H](CCc2cc(F)c(C(F)(F)F)c(F)c2)NC(=O)CN(C)C(=O)[C@H](Cc2ccc(C(F)(F)F)cc2)N2CCCC[C@@H](C2=O)N(C)C(=O)CN(C)C1=O [PP1002] | 0.025 nM | B (a compound having 3 or more and less than 10 is denoted as B) | B (a compound having 3 or more and less than 10 is denoted as B)
6 | CC[C@H](C)[C@@H]1NC(=O)[C@H](CC(C)C)N(C)C(=O)C[C@@H](C(=O)N2CCOCC2)N(C)C(=O)[C@H](C2CCCC2)N(C)C(=O)C2(CCC2)NC(=O)[C@@H]2C[C@@H](OC)CN2C(=O)[C@H](CCc2cc(F)c(C(F)(F)F)c(F)c2)NC(=O)CN(C)C(=O)[C@H](Cc2ccc(C(F)(F)F)cc2)N2CCCC[C@@H](C2=O)N(C)C(=O)CN(C)C1=O [PP1003] | 0.076 nM | C (A compound having a KD ratio of 0.1 or more and less than 3 is denoted as C) | B (a compound having 3 or more and less than 10 is denoted as B)
7 | CCCCO[C@@H]1C[C@H]2C(=O)NC3(CCC3)C(=O)N(C)[C@@H](C3CCCC3)C(=O)N(C)[C@H](C(=O)N3CCOCC3)CC(=O)N(C)[C@@H](CC(C)C)C(=O)N[C@@H]([C@@H](C)CC)C(=O)N(C)CC(=O)N(C)[C@H]3CCCCCN(C3=O)[C@@H](Cc3ccc(C(F)(F)F)cc3)C(=O)N(C)CC(=O)N[C@@H](CCc3cc(F)c(C(F)(F)F)c(F)c3)C(=O)N2C1 [PP1004] | 3.7 nM | B (a compound having 3 or more and less than 10 is denoted as B) | B (a compound having 3 or more and less than 10 is denoted as B)
8 | CC[C@H](C)[C@@H]1NC(=O)[C@H](CC(C)C)N(C)C(=O)C[C@@H](C(=O)N2CCOCC2)N(C)C(=O)[C@H](C2CCCC2)N(C)C(=O)C2(CCC2)NC(=O)[C@@H]2C[C@@H](OCC3CC3)CN2C(=O)[C@H](CCc2cc(F)c(C(F)(F)F)c(F)c2)NC(=O)CN(C)C(=O)[C@H](Cc2ccc(C(F)(F)F)cc2)N2CCCCC[C@@H](C2=O)N(C)C(=O)CN(C)C1=O [PP1005] | 1.1 nM | A (a compound having 10 or more and less than 20 is denoted as A) | A (a compound having 10 or more and less than 20 is denoted as A)
9 | CC[C@H](C)[C@@H]1NC(=O)[C@H](CC(C)C)N(C)C(=O)C[C@@H](C(=O)N2CCOCC2)N(C)C(=O)[C@H](C2CCCC2)N(C)C(=O)C2(CCC2)NC(=O)[C@@H]2C[C@@H](OCC3CCCC3)CN2C(=O)[C@H](CCc2cc(F)c(C(F)(F)F)c(F)c2)NC(=O)CN(C)C(=O)[C@H](Cc2ccc(C(F)(F)F)cc2)N2CCCC[C@@H](C2=O)N(C)C(=O)CN(C)C1=O [PP1015] | 5 nM | C (A compound having a KD ratio of 0.1 or more and less than 3 is denoted as C) | C (A compound having a KD ratio of 0.1 or more and less than 3 is denoted as C)
10 | CC[C@H](C)[C@@H]1NC(=O)[C@H](CC(C)C)N(C)C(=O)C[C@@H](C(=O)N2CCOCC2)N(C)C(=O)[C@H](C2CCCC2)N(C)C(=O)C2(CCC2)NC(=O)[C@@H]2C[C@@H](OC)CN2C(=O)[C@H](CCc2cc(F)c(C(F)(F)F)c(F)c2)NC(=O)CN(C)C(=O)[C@H](Cc2ccc(C(F)(F)F)cc2)N2CCCCC[C@@H](C2=O)N(C)C(=O)CN(C)C1=O [PP1016] | 0.27 nM | A (a compound having 10 or more and less than 20 is denoted as A) | B (a compound having 3 or more and less than 10 is denoted as B)
11 | CCO[C@@H]1C[C@H]2C(=O)NC3(CCCC3)C(=O)N(C)[C@@H](C3CCCC3)C(=O)N(C)[C@H](C(=O)N(C)C)CC(=O)N(C)[C@@H](CC(C)C)C(=O)N[C@@H]([C@@H](C)CC)C(=O)N(C)CC(=O)N(C)[C@H]3C[C@@H](C)CCN(C3=O)[C@@H](Cc3ccc(C(F)(F)F)cc3)C(=O)N(C)CC(=O)N[C@@H](CCc3cc(F)c(C(F)(F)F)c(F)c3)C(=O)N2C1 [PP1017] | 0.048 nM | C (A compound having a KD ratio of 0.1 or more and less than 3 is denoted as C) | B (a compound having 3 or more and less than 10 is denoted as B)
12 | CCO[C@@H]1C[C@H]2C(=O)NC3(CCC3)C(=O)N(C)[C@@H](C3CCCC3)C(=O)N(C)[C@H](C(=O)N(C)C)CC(=O)N(C)[C@@H](CC(C)C)C(=O)N[C@@H]([C@@H](C)CC)C(=O)N3CC[C@H]3C(=O)N(C)[C@H]3C[C@@H](C)CCN(C3=O)[C@@H](Cc3ccc(C(F)(F)F)cc3)C(=O)N(C)CC(=O)N[C@@H](CCc3cc(F)c(C(F)(F)F)c(F)c3)C(=O)N2C1 [PP1019] | 0.055 nM | C (A compound having a KD ratio of 0.1 or more and less than 3 is denoted as C) | B (a compound having 3 or more and less than 10 is denoted as B)
13 | CCO[C@@H]1C[C@H]2C(=O)NC3(CCC3)C(=O)N(C)[C@@H](C3CCCC3)C(=O)N(C)[C@H](C(=O)N(C)C)CC(=O)N(C)[C@@H](CC)C(=O)N[C@@H]([C@@H](C)CC)C(=O)N(C)CC(=O)N(C)[C@H]3C[C@@H](C)CCN(C3=O)[C@@H](Cc3ccc(C(F)(F)F)cc3)C(=O)N(C)CC(=O)N[C@@H](CCc3cc(F)c(C(F)(F)F)c(F)c3)C(=O)N2C1 [PP1020] | 0.022 nM | C (A compound having a KD ratio of 0.1 or more and less than 3 is denoted as C) | B (a compound having 3 or more and less than 10 is denoted as B)
14 | CCO[C@@H]1C[C@H]2C(=O)NC3(CCC3)C(=O)N(C)[C@@H](C3CCCC3)C(=O)N(C)[C@H](C(=O)N(C)C)CC(=O)N(C)[C@@H](CC)C(=O)N[C@@H]([C@@H](C)CC)C(=O)N3CC[C@H]3C(=O)N(C)[C@H]3C[C@@H](C)CCN(C3=O)[C@@H](Cc3ccc(C(F)(F)F)cc3)C(=O)N(C)CC(=O)N[C@@H](CCc3cc(F)c(C(F)(F)F)c(F)c3)C(=O)N2C1 [PP1021] | 0.057 nM | C (A compound having a KD ratio of 0.1 or more and less than 3 is denoted as C) | B (a compound having 3 or more and less than 10 is denoted as B)
15 | CCO[C@@H]1C[C@H]2C(=O)NC3(CCCC3)C(=O)N(C)[C@@H](C3CCCC3)C(=O)N(C)[C@H](C(=O)N(C)C)CC(=O)N(C)[C@@H](CC)C(=O)N[C@@H]([C@@H](C)CC)C(=O)N(C)CC(=O)N(C)[C@H]3C[C@@H](C)CCN(C3=O)[C@@H](Cc3ccc(C(F)(F)F)cc3)C(=O)N(C)CC(=O)N[C@@H](CCc3cc(F)c(C(F)(F)F)c(F)c3)C(=O)N2C1 [PP1022] | 0.036 nM | C (A compound having a KD ratio of 0.1 or more and less than 3 is denoted as C) | B (a compound having 3 or more and less than 10 is denoted as B)
